Read-outs that look alike come from different tables or passages of the source.
How the values were obtained:
[1] = test system: HT-1080 (human lung fibrosarcoma); assay: Cytotoxicity, MTT assay, HT-1080; type: cell-based; settings: 72 h exposure; for IC50: Homo sapiens, HT-1080, read-out: HT-1080 IC50 (MTT)
From the text: (§1) Reduction takes place only when mitochondrial reductase enzymes are active, and therefore, conversion is directly related to the number of viable cells which can be quantified by the absorbance of the solution (between λ = 500 and 600 nm) using a spectrophotometer.

NIH3T3 = assay: in vitro; settings: for LD50 (calculated, NIH3T3): mouse
From the text: Data from the in vitro tests were used for estimating the starting dose for acute oral systemic toxicity tests in the rodent. The in vivo starting dose is an estimated LD50 value calculated by inserting the in vitroIC50 value into a regression formula: log LD50 (mM/kg) = 0.439 log IC50 (mM) + 0.621 [23–25]. […] Using an alternative in vitro method allows the comparison between possibly toxic new compounds and selecting compounds for further study vastly reducing the number of animal experiments.
Additionally, the compound influence on “normal” mouse fibroblasts (NIH3T3) was estimated for the studies of structure-activity relationships and exploration of the effect of substituents.

MH-22A (mouse hepatoma) [2] = assay: Cytotoxicity, crystal violet (CV) assay, MH-22A; type: cell-based; settings: Mus musculus, 72 h exposure, read-out: MH-22A IC50 (CV)
Protocol: After incubation, the staining solution was removed. The cells were washed 4 times with water.

[3] = test system: HT-1080 (human lung fibrosarcoma); assay: Cytotoxicity, crystal violet (CV) assay, HT-1080; settings: Homo sapiens, HT-1080, 72 h, read-out: HT-1080 IC50 (CV)
Protocol: IC50 is the compound concentration (μg/ml) at which 50% of the cells die. […] CV staining can be used to quantify the total DNA of the remaining population and thus is used to determine the number of live cells based on the concentration of the dye which remains after staining.
Tumor cell lines HT-1080 (human connective tissue fibrosarcoma, ATCC® CCL-121™) and MH-22A (mouse hepatocarcinoma, ECACC, cat. Nr. 96121721) were used.
HT-1080 and MH-22A cells were seeded in 96-well plates in Dulbecco's modified Eagle's (DMEM) medium containing 10% fetal bovine serum and 4 mM L-glutamine, without antibiotics, and cultivated for 72 h by exposure to different concentrations of compounds. Cell viability was measured using 3-(4,5-dimethylthiazol-2-yl)-2,5-diphenyltetrazolinium bromide (MTT). In brief, after incubating with compounds, the culture medium was removed and fresh medium with 0.2 mg/ml MTT was added in each well of the plate. After incubation (3 h, 37°C, 5% CO2), the medium with MTT was removed, and 200 μl DMSO was added at once to each sample. The samples were tested at 540 nm on a Tecan Infinite M1000 multiplate reader. The IC50 was calculated using the program GraphPad Prism® 3.0.
For the CV assay, cells were stained with 0.05% crystal violet (Sigma-Aldrich) in 30% methanol for 20 minutes at room temperature. After incubation, the staining solution was removed. The cells were washed 4 times with water. For dye solubilization, 200 μl of a solubilizing solution (0.1 M citrate buffer, pH 4.2 in 50% ethanol; 1 : 1 v/v) was added. The absorbance of the solution was measured using a Tecan Infinite M1000 multiplate spectrophotometer at a wavelength of 570 nm [21].

MH-22A (mouse hepatoma) [4] = assay: Cytotoxicity, MTT assay, MH-22A; type: cell-based; settings: 72 h exposure; for IC50: Mus musculus, read-out: MH-22A IC50 (MTT)
From the text: as §1

[5] = test system: NIH3T3 (mouse embryonic fibroblast); assay: Basal cytotoxicity test, Neutral Red Uptake (NRU) assay; settings: for IC50: Mus musculus, NIH3T3, 24 h
Protocol: The NRU cytotoxicity assay procedure is based on the ability of viable cells to incorporate and bind neutral red, a supravital dye.
Balb/c NIH 3T3 (mouse Swiss albino embryo fibroblast, ATCC® CRL-1658™) cells (9000 cells/well) were placed into 96-well plates for 24 h in Dulbecco's modified Eagle's medium (DMEM) containing 5% fetal bovine serum. Then, the cells were exposed to the test compound over a range of seven concentrations (1000, 316, 100, 31, 10, 3, and 1 μg/ml) for 24 h. Untreated cells were used as a control. After 24 h, the medium was removed from all plates. Then, 150 μl of neutral red solution was added (0.05 mg/ml NR in DMEM 24 h preincubated at 37°C and then filtered before use through a 0.22 μm syringe filter). Plates were incubated for 3 h, and then, the cells were washed three times with PBS. The dye within viable cells was released by extraction with a mixture of acetic acid, ethanol, and water (1 : 50 : 49). The absorbance of neutral red was measured using a spectrophotometer multiplate reader (Tecan Infinite M1000) at 540 nm. The optical density (OD) was calculated using the following formula: OD (treated cells) × 100/OD (control cells). The IC50 values were calculated using the GraphPad Prism® 3.0 program.

[6] = read-out: NIH3T3 IC50 (NR), Table 2, 24 h exposure

Row | Compound | IC50 ([1]; Table 1) | IC50 [3] | IC50 (MH-22A (mouse hepatoma) [4]; Table 1) | IC50 ([5]; read-out: NIH3T3 IC50 (NR)) | IC50 ([1]; Table 2) | IC50 (MH-22A (mouse hepatoma) [2]; Table 2) | IC50 (MH-22A (mouse hepatoma) [4]; Table 2) | IC50 [5, 6] | also measured
1 | CCOC(=O)C1=C(C[n+]2ccccc2)NC(C[n+]2ccccc2)=C(C(=O)OCC)C1c1ccccc1C(F)(F)F.[Br-].[Br-] [compound 6, 1,1'-((3,5-Bis(ethoxycarbonyl)-4-(2-(trifluoromethyl)phenyl)-1,4-dihydropyridine-2,6-diyl)bis(methylene))bis(pyridin-1-ium) dibromide] | > 100 µg/mL | > 100 µg/mL | > 100 µg/mL | > 1000 µg/mL |  |  |  |  | LD50 (calculated, NIH3T3) (NIH3T3): > 2000 mg/kg; IC50 (MH-22A (mouse hepatoma) [2]; Table 1): > 100 µg/mL
2 | CCCCCCCCCCCC[N+](C)(C)CC1=C(C(=O)OC)CCC(=O)N1 [compound 36, N-((3-(methyloxycarbonyl)-6-oxo-1,4,5,6-tetrahydropyridin-2-yl)methyl-N,N-dimethyldodecan-1-aminium bromide] |  | 2 ± 0.2 µg/mL |  |  | 1 ± 0.2 µg/mL | 18 ± 3 µg/mL | 16 ± 3 µg/mL | 63 ± 11 µg/mL | 
3 | O=C1CC(c2ccccc2)C(C(=O)OCCCCC(F)(F)C(F)(F)C(F)(F)C(F)(F)C(F)(F)C(F)(F)C(F)(F)C(F)(F)F)=C(C[n+]2ccccc2)N1.[O-][Cl+3]([O-])([O-])[O-] (centres unmarked) [compound 32, 1-((3-(((5,5,6,6,7,7,8,8,9,9,10,10,11,11,12,12,12-Heptadecafluorododecyl)oxy)carbonyl)-6-oxo-4-phenyl-1,4,5,6-tetrahydropyridin-2-yl)methyl)pyridin-1-ium perchlorate] |  | 3 ± 0.3 µg/mL |  |  | 3 ± 0.5 µg/mL | 2 ± 0.3 µg/mL | 3 ± 0.2 µg/mL | 15 ± 3 µg/mL | 
4 | CCCCCCCCCCCCOC(=O)C1=C(C[N+](C)(C)CCCCCCCCCCCC)NC(C[N+](C)(C)CCCCCCCCCCCC)=C(C(=O)OCCCCCCCCCCCC)C1c1ccccc1.[O-][Cl+3]([O-])([O-])[O-].[O-][Cl+3]([O-])([O-])[O-] [compound 20, N,N'-((3,5-bis((dodecyloxy)carbonyl)-4-phenyl-1,4-dihydropyridine-2,6-diyl)bis(methylene))bis(N,N-dimethyldodecan-1-aminium) diperchlorate] | 3 ± 0.4 µg/mL | 3 ± 0.3 µg/mL | 10 ± 2 µg/mL |  |  |  |  |  | IC50 (MH-22A (mouse hepatoma) [2]; Table 1): 10 ± 2 µg/mL; IC50 ([5]; read-out: NIH3T3 IC50 (NR), Table 1, 24 h exposure): 19 ± 6 µg/mL
5 | O=C1CC(c2ccccc2)C(C(=O)OCCCCC(F)(F)C(F)(F)C(F)(F)C(F)(F)C(F)(F)C(F)(F)C(F)(F)C(F)(F)F)=C([P+](c2ccccc2)(c2ccccc2)c2ccccc2)N1.[Br-] (centres unmarked) [compound 30, (3-(((5,5,6,6,7,7,8,8,9,9,10,10,11,11,12,12,12-Heptadecafluorododecyl)oxy)carbonyl)-6-oxo-4-phenyl-1,4,5,6-tetrahydropyridin-2-yl)triphenylphosphonium bromide] |  | 10 ± 2 µg/mL |  |  | 9 ± 2 µg/mL | 30 ± 11 µg/mL | 39 ± 5 µg/mL | 127 ± 11 µg/mL | times less cytotoxic than dihydropyridone 31 in the NIH3T3 cells (NIH3T3; from LD50 1779 mg/kg versus 604 mg/kg): about 3 times
6 | 1,1'-((4-(2-(Difluoromethoxy)phenyl)-3,5-bis(methoxycarbonyl)-1,4-dihydropyridine-2,6-diyl)bis(methylene))bis(1-methylpiperidin-1-ium) diperchlorate [compound 9] |  |  |  |  |  |  |  |  | HT-1080 IC50 (MTT) ([1]; Table 1): ∗ (∗: not detected); MH-22A IC50 (MTT) (MH-22A (mouse hepatoma) [4]; Table 1): ∗ (∗: not detected); NIH3T3 IC50 (NR) ([5]; Table 1, 24 h exposure): ∗ (∗: not detected)
7 | CCCCCCCCCCCC[N+](C)(C)CC1=C(C(=O)OC)C(c2ccccc2)CC(=O)N1 (centres unmarked) [compound 33, N-((3-(methyloxycarbonyl)-6-oxo-4-phenyl-1,4,5,6-tetrahydropyridin-2-yl)methyl-N,N-dimethyldodecan-1-aminium bromide] |  | 2 ± 0.4 µg/mL |  |  | 1 ± 0.2 µg/mL | 2 ± 0.1 µg/mL | 2 ± 0.6 µg/mL | 4 ± 1 µg/mL | 
8 | CCCCCCCCCCCC[N+](C)(C)CC1=C(C(=O)OCCCCC(F)(F)C(F)(F)C(F)(F)C(F)(F)C(F)(F)C(F)(F)C(F)(F)C(F)(F)F)C(c2ccccc2)CC(=O)N1 (centres unmarked) [compound 35, N-((3-((5,5,6,6,7,7,8,8,9,9,10,10,11,11,12,12,12-Heptadecafluorododecyloxy)carbonyl)-6-oxo-4-phenyl-1,4,5,6-tetrahydropyridin-2-yl)methyl-N,N-dimethyldodecan-1-aminium bromide] |  | 3 ± 0.3 µg/mL |  |  | 30 ± 11 µg/mL | 26 ± 6 µg/mL | 30 ± 8 µg/mL | 27 ± 9 µg/mL | 
9 | CCOC(=O)C1=C(C[n+]2cccc(C)c2)NC(C[n+]2cccc(C)c2)=C(C(=O)OCC)C1c1ccccc1.[Br-].[Br-] [compound 5, 1,1'-((3,5-Bis(ethoxycarbonyl)-4-phenyl-1,4-dihydropyridine-2,6-diyl)bis(methylene))-bis(3-methylpyridin-1-ium) dibromide] | > 740 µg/mL |  | > 100 µg/mL | > 1000 µg/mL |  |  |  |  | LD50 (calculated, NIH3T3) (NIH3T3): > 2000 mg/kg
10 | CCOC(=O)C1=C(C[n+]2ccc(N(C)C)cc2)NC(C[n+]2ccc(N(C)C)cc2)=C(C(=O)OCC)C1c1ccccc1.[Br-].[Br-] [compound 4, 1,1'-((3,5-Bis(ethoxycarbonyl)-4-phenyl-1,4-dihydropyridine-2,6-diyl)bis(methylene))-bis(4-(dimethylamino)pyridin-1-ium) dibromide] | 324 ± 29 µg/mL |  | 608 ± 49 µg/mL | > 1000 µg/mL |  |  |  |  | LD50 (calculated, NIH3T3) (NIH3T3): > 2000 mg/kg
11 | CCCCCCCCCCCCOC(=O)C1=C(C[n+]2ccccc2)NC(C[n+]2ccccc2)=C(C(=O)OCCCCCCCCCCCC)C1c1ccc(O)cc1.[Br-].[Br-] [compound 18, 1,1'-((3,5-Bis((dodecyloxy)carbonyl)-4-(4-hydroxyphenyl)-1,4-dihydropyridine-2,6-diyl)bis(methylene))bis(pyridin-1-ium) dibromide] | 10 ± 2 µg/mL | 4.3 ± 0.6 µg/mL | 16 ± 2 µg/mL | 95 ± 7 µg/mL |  |  |  |  | IC50 (MH-22A (mouse hepatoma) [2]; Table 1): 3.4 ± 0.6 µg/mL
12 | CCCCCCCCCCCCCCCCOC(=O)/C=C(\N)C[N+](C)(C)CCCCCCCCCCCC [compound 46, (Z,E)-N-(2-Amino-4-(hexadecyloxy)-4-oxobut-2-en-1-yl)-N,N-dimethyldodecan-1-aminium iodide] |  |  |  |  |  |  |  |  | NIH3T3 LD50 (NIH3T3; Table 3, calculated from NIH3T3 IC50 by regression formula): 637 mg/kg; IC50 in NIH3T3 cell lines [5]: around 30 μg/ml; NIH3T3 IC50 (NR) ([5]; Table 3, 24 h exposure): 34 ± 8 µg/mL
13 | CCCCCCCCCCCCOC(=O)C1=C(C[N+](C)(C)CCCCCCCCCCCC)NC(=O)CC1c1ccccc1 (centres unmarked) [compound 34, N-((3-(dodecyloxycarbonyl)-6-oxo-4-phenyl-1,4,5,6-tetrahydropyridin-2-yl)methyl-N,N-dimethyldodecan-1-aminium bromide] |  | 2 ± 0.2 µg/mL |  |  | 2 ± 0.6 µg/mL | 3 ± 0.8 µg/mL | < 1 µg/mL | 6 ± 2 µg/mL | 
14 | CCCCCCCCCCCCOC(=O)C1=C(C[N+](C)(C)CCCCCCCCCCCC)NC(=O)CC1 [compound 37, N-((3-(dodecyloxycarbonyl)-6-oxo-1,4,5,6-tetrahydropyridin-2-yl)methyl-N,N-dimethyldodecan-1-aminium bromide] |  | 2 ± 0.5 µg/mL |  |  | 3 ± 0.4 µg/mL | 3 ± 0.6 µg/mL | 1 ± 0.2 µg/mL | 7 ± 1 µg/mL | 
15 | CCCCCCCCCCCCOC(=O)C1=C(C[n+]2ccc(C)cc2)NC(C[n+]2ccc(C)cc2)=C(C(=O)OCCCCCCCCCCCC)C1c1ccc(O)cc1.[Br-].[Br-] [compound 19, 1,1'-((3,5-Bis((dodecyloxy)carbonyl)-4-(4-hydroxyphenyl)-1,4-dihydropyridine-2,6-diyl)bis(methylene))bis(4-methylpyridin-1-ium) dibromide] | 22 ± 5 µg/mL | 32 ± 8 µg/mL | 30 ± 8 µg/mL | 44 ± 11 µg/mL |  |  |  |  | IC50 (MH-22A (mouse hepatoma) [2]; Table 1): 21 ± 3 µg/mL
16 | O=C1CC(c2ccccc2)C(C(=O)OCCCCC(F)(F)C(F)(F)C(F)(F)C(F)(F)C(F)(F)C(F)(F)C(F)(F)C(F)(F)F)=C(C[n+]2ccccc2)N1.[Br-] (centres unmarked) [compound 31, 1-((3-(((5,5,6,6,7,7,8,8,9,9,10,10,11,11,12,12,12-Heptadecafluorododecyl)oxy)carbonyl)-6-oxo-4-phenyl-1,4,5,6-tetrahydropyridin-2-yl)methyl)pyridin-1-ium bromide] |  | 3 ± 0.3 µg/mL |  |  | 3 ± 0.2 µg/mL | 3 ± 1 µg/mL | 3 ± 0.6 µg/mL | 15 ± 2 µg/mL | 
17 | CCOC(=O)C1=C(C[n+]2ccc(N)cc2)NC(C[n+]2ccc(N)cc2)=C(C(=O)OCC)C1c1ccccc1.[Br-].[Br-] [compound 3, 1,1'-((3,5-Bis(ethoxycarbonyl)-4-phenyl-1,4-dihydropyridine-2,6-diyl)bis(methylene))-bis(4-aminopyridin-1-ium) dibromide] | 441 ± 46 µg/mL |  | > 740 µg/mL | > 1000 µg/mL |  |  |  |  | LD50 (calculated, NIH3T3) (NIH3T3): > 2000 mg/kg

— paper PMC7790557, “Pleiotropic Properties of Amphiphilic Dihydropyridines, Dihydropyridones, and Aminovinylcarbonyl Compounds” (Oxidative Medicine and Cellular Longevity, 2020)
